According to patent publication US20160158200A1, “Combinations of Hepatitis C Virus Inhibitors” (priority 2013, published 2016):

What was measured:
[1] = system: HCV genotype 1a L31V variant with leucine 31 changed to valine in the NS5A protein; experiment: microbe, parasite or virus in culture; assay type: cell-based; conditions: genotype 1a L31V replicon; test compound titrated with compound N47 fixed at 200 nM versus singly
[2] = system: HCV genotype 1a Y93H variant with tyrosine 93 changed to histidine in the NS5A protein; experiment: microbe, parasite or virus in culture; assay type: cell-based; conditions: genotype 1a Y93H replicon; test compound titrated with compound N47 fixed at 200 nM versus singly
Summary of the method: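 In an HCV genotype 1a replicon cell-based assay carrying the NS5A Y93H substitution, BMS-790052 was tested alone and in combination with a fixed amount of a second test compound. The combinations were examined for synergistic activity.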

Structure (SMILES) | Fold-Synergistic G-1a (L31V) [1] [fold] | Fold-Synergistic G-1a (Y93H) [2] [fold]
C[C@H](NC(=O)OCc1ccccc1)c1nc2ccc(CCc3ccc4nc([C@H](C)NC(=O)OCc5ccccc5)[nH]c4c3)cc2[nH]1 | <10 | <10
O=C(Cc1ccccc1)N1CCC[C@H]1c1nc2cc(-c3ccc4nc([C@@H]5CCCN5C(=O)Cc5ccccc5)[nH]c4c3)ccc2[nH]1 | <10 | <10
CC(C)[C@H](NC(=O)OCc1ccccc1)C(=O)Nc1ccc(-c2cnc(-c3ccc(NC(=O)[C@@H](NC(=O)OCc4ccccc4)C(C)C)cc3)o2)cc1 | <10 | <10
COC(=O)N[C@H](C(=O)N1[C@@H]2C[C@@H]2C[C@H]1c1ncc(-c2ccc(-c3ccc4cc(-c5cnc([C@@H]6C[C@H]7C[C@H]7N6C(=O)[C@@H](NC(=O)OC)C(C)C)[nH]5)ccc4c3)cc2)[nH]1)C(C)C | <10 | >10
COC(=O)N[C@H](C(=O)N1CCC[C@H]1c1nc2ccc(-c3ccc4nc(-c5ccc6nc([C@@H]7CCCN7C(=O)[C@@H](NC(=O)OC)C(C)C)[nH]c6c5)ccc4c3)cc2[nH]1)C(C)C | >10 | >10
COC(=O)N[C@H](C(=O)N1CCC[C@H]1c1nc2ccc(Oc3ccc(-c4ccc5nc([C@@H]6CCCN6C(=O)[C@@H](NC(=O)OC)C(C)C)[nH]c5c4)cc3)cc2[nH]1)C(C)C | <10 | <10
COC(=O)N[C@H](C(=O)N1[C@@H]2C[C@@H]2C[C@H]1c1ncc(-c2ccc3cc(-c4ccc5[nH]c([C@@H]6C[C@H]7C[C@H]7N6C(=O)[C@@H](NC(=O)OC)C(C)C)nc5c4)ccc3c2)[nH]1)C(C)C | >100 | >100
CCC1(c2ccc(NC(=O)[C@@H]3C[C@H]4C[C@H]4N3C(=O)[C@@H](NC(=O)OC)C(C)C)cc2)CC2C3CC4CC(c5ccc(NC(=O)[C@@H]6C[C@H]7C[C@H]7N6C(=O)[C@@H](NC(=O)OC)C(C)C)cc5)(C3)CC2C4C1 (stereo partly shown) | <10 | <10
COC(=O)N[C@H](C(=O)N1[C@@H]2C[C@@H]2C[C@H]1c1ncc(-c2cccc(-c3ccc4cc(-c5cnc([C@H]6C[C@@H]7C[C@@H]7N6C(=O)[C@@H](NC(=O)OC)C(C)C)[nH]5)ccc4c3)c2)[nH]1)C(C)C | <10 | >10
COC(=O)N[C@H](C(=O)N1CCC[C@H]1c1ncc(-c2cccc(C#Cc3cccc(-c4cnc([C@@H]5CCCN5C(=O)[C@@H](NC(=O)OC)C(C)C)[nH]4)c3)c2)[nH]1)C(C)C | >10 | >10
COC(=O)N[C@H](C(=O)N1[C@@H]2C[C@@H]2C[C@H]1c1ncc(-c2ccc([C@@H]3C[C@H]3c3ccc(-c4cnc([C@@H]5C[C@H]6C[C@H]6N5C(=O)[C@@H](NC(=O)OC)C(C)C)[nH]4)cc3)cc2)[nH]1)C(C)C | >10 | >10
COC(=O)N[C@H](C(=O)N1[C@@H]2C[C@@H]2C[C@H]1c1ncc(-c2ccc([C@H]3C[C@@H]3c3ccc(-c4cnc([C@@H]5C[C@H]6C[C@H]6N5C(=O)[C@@H](NC(=O)OC)C(C)C)[nH]4)cc3)cc2)[nH]1)C(C)C | >10 | <10
COC(=O)N[C@H](C(=O)N1[C@H](c2ncc(-c3ccc(-c4ccc(-c5cnc([C@@H]6C[C@@H](C)[C@H](C)N6C(=O)[C@@H](NC(=O)OC)C(C)C)[nH]5)cc4)cc3)[nH]2)C[C@@H](C)[C@@H]1C)C(C)C | >100 | >100
COC(=O)N[C@H](C(=O)N1[C@H](c2ncc(-c3ccc(-c4ccc(-c5cnc([C@@H]6C[C@H](C)[C@H](C)N6C(=O)[C@@H](NC(=O)OC)C(C)C)[nH]5)cc4)cc3)[nH]2)C[C@H](C)[C@@H]1C)C(C)C | >100 | >100
COC(=O)N[C@H](C(=O)N1[C@@H]2C[C@@H]2C[C@H]1c1ncc(-c2ccc(-c3ccc(-c4ccc(-c5cnc([C@@H]6C[C@H]7C[C@H]7N6C(=O)[C@@H](NC(=O)OC)C(C)C)[nH]5)cc4)c4[nH]ccc34)cc2)[nH]1)C(C)C | >10 | >10
COC(=O)N[C@H](C(=O)N1[C@@H](C)CC[C@H]1c1ncc(-c2ccc(-c3ccc4cc(-c5cnc([C@@H]6CC[C@H](C)N6C(=O)[C@@H](NC(=O)OC)C(C)C)[nH]5)ccc4c3)cc2)[nH]1)C(C)C | <10 | >100

Structure (SMILES) | Fold-Synergistic G-1a (L31V) [1] [fold] | Fold-Synergistic G-1a (Y93H) [2] [fold]
COC(=O)N[C@H](C(=O)N1[C@@H](C)CC[C@H]1c1ncc(-c2ccc(-c3ccc4cc(-c5cnc([C@@H]6CC[C@H](C)N6C(=O)[C@@H](NC(=O)OC)C6CCOCC6)[nH]5)ccc4c3)cc2)[nH]1)C1CCOCC1 | <10 | >10
COC(=O)N[C@H](C(=O)N1CCOC[C@H]1c1ncc(-c2ccc(-c3ccc(-c4cnc([C@@H]5COCCN5C(=O)[C@@H](NC(=O)OC)C(C)C)[nH]4)cc3)cc2)[nH]1)C(C)C | >100 | >100
COC(=O)N[C@H](C(=O)N1[C@H]2C[C@@]2(C)C[C@H]1c1ncc(-c2ccc(-c3ccc(-c4cnc([C@@H]5C[C@]6(C)C[C@@H]6N5C(=O)[C@@H](NC(=O)OC)C(C)C)[nH]4)cc3)cc2)[nH]1)C(C)C | >100 | >100
COC(=O)N[C@H](C(=O)N1[C@@H]2C[C@@H]2C[C@H]1c1ncc(C#Cc2ccc3cc(-c4cnc([C@@H]5C[C@H]6C[C@H]6N5C(=O)[C@@H](NC(=O)OC)C(C)C)[nH]4)ccc3c2)[nH]1)C(C)C | >100 | >100
COC(=O)NC(C(=O)N1[C@@H](C)CC[C@H]1c1nc2ccc3cc(C#CC#Cc4ccc5c(ccc6nc([C@@H]7CC[C@H](C)N7C(=O)C(NC(=O)OC)C7CCOCC7)[nH]c65)c4)ccc3c2[nH]1)C1CCOCC1 (stereo partly shown) | <10 | <10
COC(=O)N[C@H](C(=O)N1C[C@@H](C)C[C@H]1c1ncc(-c2ccc(-c3ccc4cc(-c5cnc([C@@H]6C[C@H](C)CN6C(=O)[C@@H](NC(=O)OC)C(C)C)[nH]5)ccc4c3)cc2)[nH]1)C(C)C | <10 | >10
COC(=O)N[C@H](C(=O)N1[C@@H]2C[C@@H]2C[C@H]1c1nc(-c2ccc3cc(-c4ccc5cc(-c6c[nH]c([C@@H]7C[C@H]8C[C@H]8N7C(=O)[C@@H](NC(=O)OC)C(C)C)n6)ccc5c4)ccc3c2)c[nH]1)C(C)C | <10 | <10
COC(=O)N[C@H](C(=O)N1[C@@H]2C[C@@H]2C[C@H]1c1ncc(-c2ccc(-c3ccc4nc(-c5cnc([C@@H]6C[C@H]7C[C@H]7N6C(=O)[C@@H](NC(=O)OC)C(C)C)[nH]5)ccc4c3)cc2)[nH]1)C(C)C | <10 | >10
COC(=O)N[C@H](C(=O)N1C[C@H](C)C[C@H]1c1ncc(-c2ccc(-c3ccc4cc(-c5cnc([C@@H]6C[C@@H](C)CN6C(=O)[C@@H](NC(=O)OC)C(C)C)[nH]5)ccc4c3)cc2)[nH]1)C(C)C | <10 | >10
COC(=O)N[C@H](C(=O)N1[C@H](c2nc(-c3ccc(-c4ccc(-c5c[nH]c([C@@H]6C[C@@H]7CCC[C@@H]7N6C(=O)[C@@H](NC(=O)OC)C(C)C)n5)cc4)cc3)c[nH]2)C[C@@H]2CCC[C@@H]21)C(C)C | >100 | >100
COC(=O)N[C@H](C(=O)N1CCCC1c1cn(-c2ccc(-c3ccc(-n4cnc(C5CCCN5C(=O)[C@@H](NC(=O)OC)C(C)C)c4)cc3)cc2)cn1)C(C)C (stereo partly shown) | >10 | >10
COC(=O)N[C@H](C(=O)N1[C@@H]2C[C@@H]2C[C@H]1c1nc(-c2ccn3nc(-c4ccc(-c5cnc([C@@H]6C[C@H]7C[C@H]7N6C(=O)[C@@H](NC(=O)OC)C(C)C)[nH]5)cc4)cc3c2)c[nH]1)C(C)C | >100 | >100
COC(=O)N[C@H](C(=O)N1[C@@H]2C[C@@H]2C[C@H]1c1nc(-c2cccc3c(-c4ccc(-c5cnc([C@@H]6C[C@H]7C[C@H]7N6C(=O)[C@@H](NC(=O)OC)C(C)C)[nH]5)cc4)cccc23)c[nH]1)C(C)C | >100 | >100
COC(=O)N[C@H](C(=O)N(C)[C@@H](C)c1ncc(-c2ccc(C#Cc3ccc(-c4cnc([C@H](C)N(C)C(=O)[C@@H](NC(=O)OC)C(C)C)[nH]4)cc3)cc2)[nH]1)C(C)C | >10 | <10
C=C1C[C@@H](c2nc(-c3ccc(-c4ccc5cc(-c6c[nH]c([C@@H]7CC(=C)CN7C(=O)[C@@H](NC(=O)OC)C(C)C)n6)ccc5c4)cc3)c[nH]2)N(C(=O)[C@@H](NC(=O)OC)C(C)C)C1 | <10 | >100
COC(=O)N[C@H](C(=O)N1[C@@H]2C[C@@H]2C[C@H]1c1ncc(-c2ccc(C#Cc3ccc(-c4cnc([C@@H]5C[C@H]6C[C@H]6N5C(=O)[C@@H](NC(=O)OC)C(C)C)[nH]4)cc3C)c(C)c2)[nH]1)C(C)C | <10 | <10
